Source: ChEMBL document CHEMBL5465560, “Selectivity Literature for EUbOPEN Chemogenomic Library” (2024)

Experiments:
[1] = molecular target: MAP kinase-activated protein kinase 2 (Homo sapiens, UniProt P49137); assay: Selectivity interaction (KinomeScan (DiscoverX)) EUB0001049a MAPKAPK2; conditions: at 1 µM
[2] = molecular target: Serine/threonine-protein kinase tousled-like 2 (Homo sapiens) (UniProt Q86UE8); assay: Selectivity interaction (KinomeScan (DiscoverX)) EUB0001049a TLK2; conditions: at 1 µM
Chain of Serine/threonine-protein kinase tousled-like 2 (Homo sapiens) (Q86UE8 whole entry, looked up): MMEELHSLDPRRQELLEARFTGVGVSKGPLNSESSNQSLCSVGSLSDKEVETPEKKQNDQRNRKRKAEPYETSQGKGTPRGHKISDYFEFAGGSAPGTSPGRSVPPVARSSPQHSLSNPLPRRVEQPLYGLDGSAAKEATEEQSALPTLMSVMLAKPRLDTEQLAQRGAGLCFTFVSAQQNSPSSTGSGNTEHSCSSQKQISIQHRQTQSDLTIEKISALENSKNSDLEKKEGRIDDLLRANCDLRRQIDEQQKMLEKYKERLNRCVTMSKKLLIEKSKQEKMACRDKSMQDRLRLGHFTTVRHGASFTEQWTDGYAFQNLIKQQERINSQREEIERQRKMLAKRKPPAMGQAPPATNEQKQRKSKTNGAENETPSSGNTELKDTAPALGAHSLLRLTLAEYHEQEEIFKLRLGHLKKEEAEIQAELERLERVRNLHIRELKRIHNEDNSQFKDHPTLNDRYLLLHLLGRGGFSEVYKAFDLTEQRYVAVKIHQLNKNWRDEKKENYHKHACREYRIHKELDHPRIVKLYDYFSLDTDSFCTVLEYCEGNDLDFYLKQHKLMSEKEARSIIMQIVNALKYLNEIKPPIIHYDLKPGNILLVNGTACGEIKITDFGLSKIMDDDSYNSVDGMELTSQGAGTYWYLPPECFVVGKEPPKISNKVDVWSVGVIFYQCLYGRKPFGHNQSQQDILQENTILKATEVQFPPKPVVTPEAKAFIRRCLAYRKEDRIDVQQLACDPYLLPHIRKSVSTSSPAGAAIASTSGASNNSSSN

[3] = molecular target: MAP kinase-interacting serine/threonine-protein kinase 1 (Homo sapiens) (UniProt Q9BUB5); assay: Selectivity interaction (KinomeScan (DiscoverX)) EUB0000229b MKNK1; conditions: at 10 µM
[4] = system: Proto-oncogene tyrosine-protein kinase receptor Ret (Homo sapiens), P07949 [M918T]; assay: (§1) Selectivity interaction (KinomeScan (DiscoverX)) EUB0000229b RET; conditions: at 1 µM
[5] = system: Proto-oncogene tyrosine-protein kinase receptor Ret (Homo sapiens), P07949 [V804L]; assay: as §1; conditions: at 1 µM
[6] = system: Proto-oncogene tyrosine-protein kinase receptor Ret (Homo sapiens), P07949 [V804M]; assay: as §1; conditions: at 1 µM
[7] = molecular target: Proto-oncogene tyrosine-protein kinase receptor Ret (Homo sapiens, UniProt P07949); assay: as §1; conditions: at 10 µM
Chain of Proto-oncogene tyrosine-protein kinase receptor Ret (P07949 whole entry): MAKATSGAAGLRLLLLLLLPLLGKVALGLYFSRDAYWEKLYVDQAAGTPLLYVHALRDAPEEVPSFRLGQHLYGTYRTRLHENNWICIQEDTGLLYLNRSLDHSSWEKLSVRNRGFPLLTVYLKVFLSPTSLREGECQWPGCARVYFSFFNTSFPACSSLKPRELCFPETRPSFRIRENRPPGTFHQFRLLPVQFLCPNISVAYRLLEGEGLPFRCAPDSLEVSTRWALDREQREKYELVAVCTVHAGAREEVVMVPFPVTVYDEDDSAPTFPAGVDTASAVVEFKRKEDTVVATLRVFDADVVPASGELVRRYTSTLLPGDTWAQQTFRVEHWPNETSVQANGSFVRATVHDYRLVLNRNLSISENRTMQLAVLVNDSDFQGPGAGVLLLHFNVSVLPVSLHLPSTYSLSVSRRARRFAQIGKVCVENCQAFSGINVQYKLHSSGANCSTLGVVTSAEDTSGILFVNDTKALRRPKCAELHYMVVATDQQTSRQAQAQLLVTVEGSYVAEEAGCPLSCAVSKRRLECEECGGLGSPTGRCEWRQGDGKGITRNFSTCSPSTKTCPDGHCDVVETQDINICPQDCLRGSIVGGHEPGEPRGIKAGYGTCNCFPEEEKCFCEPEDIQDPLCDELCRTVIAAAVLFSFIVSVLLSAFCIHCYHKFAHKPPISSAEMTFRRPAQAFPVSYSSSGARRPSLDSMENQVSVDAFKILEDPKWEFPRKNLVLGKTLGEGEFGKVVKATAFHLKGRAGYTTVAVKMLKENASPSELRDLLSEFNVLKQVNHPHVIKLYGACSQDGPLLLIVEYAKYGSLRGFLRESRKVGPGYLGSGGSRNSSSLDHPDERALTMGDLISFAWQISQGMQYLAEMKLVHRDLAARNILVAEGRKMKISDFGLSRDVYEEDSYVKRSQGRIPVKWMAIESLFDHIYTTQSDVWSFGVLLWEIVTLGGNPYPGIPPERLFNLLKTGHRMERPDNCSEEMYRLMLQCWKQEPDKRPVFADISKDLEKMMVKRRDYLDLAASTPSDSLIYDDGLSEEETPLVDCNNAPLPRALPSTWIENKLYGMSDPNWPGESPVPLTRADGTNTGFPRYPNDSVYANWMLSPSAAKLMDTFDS

[8] = molecular target: Non-receptor tyrosine-protein kinase TYK2 (Homo sapiens, UniProt P29597); assay: Selectivity interaction (Kinase panel (33PanQinase(R) Activity Assay)) EUB0000877a TYK2
[9] = molecular target: Cyclin-dependent kinase 2 (Homo sapiens, UniProt P24941); assay: Selectivity interaction (ActivX KiNativ screen (kinase selectivity in THP-1 cell lysates)) EUB0000639a CDK2; format: subcellular; conditions: lysate, at 1 µM
[10] = molecular target: Insulin-like growth factor 1 receptor (Homo sapiens, UniProt P08069); assay: Selectivity interaction (Kinase panel (enzymatic assay)) EUB0000595a IGF1R
[11] = molecular target: Cyclin-dependent kinase 7 (Homo sapiens, UniProt P50613); assay: Selectivity interaction (KinomeScan (DiscoverX)) EUB0000618a CDK7; conditions: at 10 µM
[12] = molecular target: Tyrosine-protein kinase JAK1 (Homo sapiens, UniProt P23458); assay: Selectivity interaction (ActivX KiNativ screen (ex vivo kinase selectivity in human PBMCs)) EUB0001619a JAK1; format: cell-based; conditions: PBMC, at 1 µM
[13] = molecular target: Cyclin-dependent kinase 14 (Homo sapiens) (UniProt O94921); assay: Selectivity interaction (KinomeScan (DiscoverX)) EUB0000695a CDK14; conditions: at 100 nM
Chain of Cyclin-dependent kinase 14 (Homo sapiens) (O94921 whole entry): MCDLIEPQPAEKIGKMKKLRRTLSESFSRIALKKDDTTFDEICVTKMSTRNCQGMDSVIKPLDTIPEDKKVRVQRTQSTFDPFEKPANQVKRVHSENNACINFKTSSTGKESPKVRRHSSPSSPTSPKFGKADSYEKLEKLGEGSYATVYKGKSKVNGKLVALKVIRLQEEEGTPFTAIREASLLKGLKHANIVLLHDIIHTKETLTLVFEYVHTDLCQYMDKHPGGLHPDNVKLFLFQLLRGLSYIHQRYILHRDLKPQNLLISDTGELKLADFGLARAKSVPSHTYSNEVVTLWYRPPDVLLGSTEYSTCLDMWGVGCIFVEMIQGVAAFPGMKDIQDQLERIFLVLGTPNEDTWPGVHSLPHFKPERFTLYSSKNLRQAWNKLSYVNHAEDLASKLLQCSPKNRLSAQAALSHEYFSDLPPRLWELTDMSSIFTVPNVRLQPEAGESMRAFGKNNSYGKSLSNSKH

[14] = molecular target: Tyrosine-protein kinase Lyn (Homo sapiens, UniProt P07948); assay: Selectivity interaction (KinomeScan (DiscoverX)) EUB0000695a LYN; conditions: at 100 nM
Chain of Tyrosine-protein kinase Lyn (P07948 2-512 limits assumed): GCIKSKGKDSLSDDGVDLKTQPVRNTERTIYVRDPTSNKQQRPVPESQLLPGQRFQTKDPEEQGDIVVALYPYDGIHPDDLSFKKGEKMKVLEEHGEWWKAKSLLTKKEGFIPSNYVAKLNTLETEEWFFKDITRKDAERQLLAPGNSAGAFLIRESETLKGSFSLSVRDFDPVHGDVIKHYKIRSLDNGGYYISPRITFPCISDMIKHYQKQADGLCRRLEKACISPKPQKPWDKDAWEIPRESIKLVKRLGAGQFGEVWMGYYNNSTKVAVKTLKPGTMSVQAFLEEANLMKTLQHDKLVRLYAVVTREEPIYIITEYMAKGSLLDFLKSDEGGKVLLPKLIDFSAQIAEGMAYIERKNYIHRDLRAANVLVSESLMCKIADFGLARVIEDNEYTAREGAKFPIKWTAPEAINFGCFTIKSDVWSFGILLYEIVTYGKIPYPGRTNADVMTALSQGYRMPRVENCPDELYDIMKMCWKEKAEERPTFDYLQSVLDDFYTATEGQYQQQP

[15] = molecular target: Tyrosine-protein kinase Fer (Homo sapiens) (UniProt P16591); assay: Selectivity interaction (SelectScreen profiling (Invitrogen)) EUB0000607a FER; conditions: at 2 µM
Chain of Tyrosine-protein kinase Fer (Homo sapiens) (P16591 whole entry, looked up): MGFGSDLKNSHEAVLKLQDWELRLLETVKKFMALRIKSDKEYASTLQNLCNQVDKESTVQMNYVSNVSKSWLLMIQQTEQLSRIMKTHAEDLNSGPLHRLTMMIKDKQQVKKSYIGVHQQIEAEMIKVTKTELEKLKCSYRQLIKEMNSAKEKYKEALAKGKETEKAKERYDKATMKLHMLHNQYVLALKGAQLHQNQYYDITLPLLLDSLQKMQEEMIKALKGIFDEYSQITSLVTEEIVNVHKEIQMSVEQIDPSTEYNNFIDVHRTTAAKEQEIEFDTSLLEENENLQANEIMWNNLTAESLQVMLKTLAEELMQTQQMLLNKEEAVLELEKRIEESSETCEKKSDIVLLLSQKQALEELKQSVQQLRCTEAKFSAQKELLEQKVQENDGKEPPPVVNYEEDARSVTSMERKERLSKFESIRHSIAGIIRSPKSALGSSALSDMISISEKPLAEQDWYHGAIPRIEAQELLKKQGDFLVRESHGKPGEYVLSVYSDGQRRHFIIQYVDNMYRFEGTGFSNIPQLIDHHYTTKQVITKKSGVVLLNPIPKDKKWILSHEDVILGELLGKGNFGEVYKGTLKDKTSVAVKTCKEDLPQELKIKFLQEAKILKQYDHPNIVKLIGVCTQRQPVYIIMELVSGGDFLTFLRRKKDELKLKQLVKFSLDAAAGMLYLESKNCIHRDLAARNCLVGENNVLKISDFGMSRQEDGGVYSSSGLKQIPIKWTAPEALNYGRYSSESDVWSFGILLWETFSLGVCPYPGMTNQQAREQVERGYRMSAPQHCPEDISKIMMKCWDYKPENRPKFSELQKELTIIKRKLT

[16] = molecular target: T1, Serine/threonine-protein kinase ULK2 (Homo sapiens) (UniProt Q8IYT8); assay: Selectivity interaction (KinomeScan (DiscoverX)) EUB0000607a ULK2; conditions: at 10 µM
T1 sequence (whole entry): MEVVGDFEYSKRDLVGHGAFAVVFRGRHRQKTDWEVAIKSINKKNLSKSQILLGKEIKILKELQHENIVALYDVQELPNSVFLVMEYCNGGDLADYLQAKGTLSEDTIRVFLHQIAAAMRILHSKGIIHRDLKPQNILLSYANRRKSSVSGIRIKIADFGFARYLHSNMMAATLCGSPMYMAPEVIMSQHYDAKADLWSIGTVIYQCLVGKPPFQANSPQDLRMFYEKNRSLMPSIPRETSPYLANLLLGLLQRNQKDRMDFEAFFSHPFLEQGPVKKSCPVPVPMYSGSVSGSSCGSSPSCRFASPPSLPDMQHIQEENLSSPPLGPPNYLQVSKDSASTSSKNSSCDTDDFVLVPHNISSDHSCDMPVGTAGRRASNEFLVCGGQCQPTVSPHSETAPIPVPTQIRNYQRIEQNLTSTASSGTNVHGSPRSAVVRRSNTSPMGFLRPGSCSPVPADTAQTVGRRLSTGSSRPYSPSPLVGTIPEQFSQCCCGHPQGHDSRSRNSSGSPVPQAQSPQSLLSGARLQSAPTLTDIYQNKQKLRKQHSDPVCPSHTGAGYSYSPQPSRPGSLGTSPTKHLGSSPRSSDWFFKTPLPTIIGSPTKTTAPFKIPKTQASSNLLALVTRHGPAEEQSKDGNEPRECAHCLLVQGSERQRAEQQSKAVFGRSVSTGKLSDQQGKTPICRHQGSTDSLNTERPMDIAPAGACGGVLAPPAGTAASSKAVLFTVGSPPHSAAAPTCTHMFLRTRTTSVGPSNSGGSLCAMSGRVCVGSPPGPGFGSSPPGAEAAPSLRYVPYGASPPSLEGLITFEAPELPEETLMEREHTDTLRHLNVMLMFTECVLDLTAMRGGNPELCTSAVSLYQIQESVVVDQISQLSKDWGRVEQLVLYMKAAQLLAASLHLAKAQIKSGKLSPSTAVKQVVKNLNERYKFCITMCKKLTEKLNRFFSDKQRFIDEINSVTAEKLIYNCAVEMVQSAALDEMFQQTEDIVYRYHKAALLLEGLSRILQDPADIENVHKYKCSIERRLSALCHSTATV

[17] = molecular target: Tyrosine-protein kinase BTK (Homo sapiens, UniProt Q06187); assay: Selectivity interaction (ProQinase) EUB0000171b BTK
Chain of Tyrosine-protein kinase BTK (Q06187 whole entry): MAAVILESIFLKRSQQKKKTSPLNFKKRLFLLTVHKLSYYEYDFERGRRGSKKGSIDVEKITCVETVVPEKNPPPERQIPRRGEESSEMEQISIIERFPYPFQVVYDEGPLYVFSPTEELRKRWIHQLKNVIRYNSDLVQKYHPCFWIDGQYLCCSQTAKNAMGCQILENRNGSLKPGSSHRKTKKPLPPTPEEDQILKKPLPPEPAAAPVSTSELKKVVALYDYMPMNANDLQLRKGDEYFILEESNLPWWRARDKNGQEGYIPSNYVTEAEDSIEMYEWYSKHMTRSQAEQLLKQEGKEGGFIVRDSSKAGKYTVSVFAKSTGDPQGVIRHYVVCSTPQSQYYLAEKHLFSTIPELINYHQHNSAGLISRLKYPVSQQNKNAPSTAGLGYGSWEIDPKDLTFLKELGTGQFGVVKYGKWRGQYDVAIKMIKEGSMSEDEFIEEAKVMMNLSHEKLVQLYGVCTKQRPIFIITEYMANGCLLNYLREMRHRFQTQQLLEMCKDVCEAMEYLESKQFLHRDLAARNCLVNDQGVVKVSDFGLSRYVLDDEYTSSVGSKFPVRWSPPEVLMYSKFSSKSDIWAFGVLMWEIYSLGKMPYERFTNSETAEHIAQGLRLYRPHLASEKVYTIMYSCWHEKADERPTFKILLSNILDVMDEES

[18] = molecular target: T2, Dual specificity tyrosine-phosphorylation-regulated kinase 2 (Homo sapiens) (UniProt Q92630); assay: Selectivity interaction (ProQinase) EUB0000171b DYRK2
T2 sequence (whole entry): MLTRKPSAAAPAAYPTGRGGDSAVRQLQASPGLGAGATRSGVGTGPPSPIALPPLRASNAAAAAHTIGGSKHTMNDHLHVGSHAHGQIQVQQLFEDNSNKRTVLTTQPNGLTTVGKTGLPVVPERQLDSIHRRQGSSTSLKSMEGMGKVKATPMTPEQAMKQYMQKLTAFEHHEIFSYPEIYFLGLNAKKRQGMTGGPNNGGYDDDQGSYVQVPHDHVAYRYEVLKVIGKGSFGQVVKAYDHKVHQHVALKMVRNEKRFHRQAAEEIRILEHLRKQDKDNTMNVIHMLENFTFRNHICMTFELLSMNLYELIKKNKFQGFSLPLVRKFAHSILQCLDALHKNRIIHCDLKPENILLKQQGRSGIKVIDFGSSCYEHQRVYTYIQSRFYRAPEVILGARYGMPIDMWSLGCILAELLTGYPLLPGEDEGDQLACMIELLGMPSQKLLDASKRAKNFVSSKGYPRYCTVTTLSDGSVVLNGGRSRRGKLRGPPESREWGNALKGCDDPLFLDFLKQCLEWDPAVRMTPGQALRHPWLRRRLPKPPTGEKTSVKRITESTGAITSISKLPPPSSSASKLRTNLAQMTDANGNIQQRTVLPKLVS

[19] = molecular target: Myosin light chain kinase 2, skeletal/cardiac muscle (Homo sapiens) (UniProt Q9H1R3); assay: Selectivity interaction (ProQinase) EUB0000171b MYLK2
Chain of Myosin light chain kinase 2, skeletal/cardiac muscle (Homo sapiens) (Q9H1R3 whole entry): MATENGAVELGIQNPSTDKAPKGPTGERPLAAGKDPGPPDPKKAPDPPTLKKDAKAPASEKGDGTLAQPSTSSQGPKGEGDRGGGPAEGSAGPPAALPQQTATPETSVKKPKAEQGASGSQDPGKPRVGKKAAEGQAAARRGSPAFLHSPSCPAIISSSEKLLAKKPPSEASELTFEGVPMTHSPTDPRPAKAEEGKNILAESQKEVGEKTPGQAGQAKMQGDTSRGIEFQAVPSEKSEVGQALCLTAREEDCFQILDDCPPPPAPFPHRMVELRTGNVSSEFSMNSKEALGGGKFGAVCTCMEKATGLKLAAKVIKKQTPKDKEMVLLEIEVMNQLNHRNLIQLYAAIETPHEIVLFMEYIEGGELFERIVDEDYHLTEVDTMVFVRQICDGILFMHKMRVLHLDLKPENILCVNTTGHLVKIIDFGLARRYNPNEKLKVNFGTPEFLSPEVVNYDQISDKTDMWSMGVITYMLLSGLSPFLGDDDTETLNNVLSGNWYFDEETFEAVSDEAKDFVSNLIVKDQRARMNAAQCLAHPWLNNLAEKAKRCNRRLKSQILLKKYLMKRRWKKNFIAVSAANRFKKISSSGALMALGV

SMILES: COc1cc(Nc2nc(C)cc(-c3cnn4nc(OC)ccc34)n2)cc(C(F)(F)F)c1
- % of control [1]: 52%
- % of control [2]: 98%

SMILES: COc1cc(N(C)c2ccnc3ccc(C(F)(F)F)cc23)cc(OC)c1OC
- % binding [3]: 89%
- % binding [4]: 100%
- % binding [5]: 96%
- % binding [6]: 89%
- % binding [7]: 97%

SMILES: CCC(=O)N1CC[C@H](Nc2ncnc3c2CN(c2cnc(OC)c(C(F)(F)F)c2)CC3)C1 [LENIOLISIB]
- IC50 [8]: > 10 µM

SMILES: CC[C@@H]1[C@H](F)C(=O)N[C@@H]1COc1nccc2cc(C(N)=O)c(OC)cc12 [ZIMLOVISERTIB]
- % of inhibition [9]: -10.5%

SMILES: COCC(=O)NC/C=C/c1ccc2ncnc(Nc3ccc(Oc4ccc(C)nc4)c(C)c3)c2c1 [CP-724714]
- IC50 [10]: > 10 µM

SMILES: O[C@H]1CC[C@H](Nc2ncc3nc(Nc4c(F)cc(F)cc4F)n([C@H]4CCOC4)c3n2)CC1
- % of control [11]: 100%

SMILES: N#Cc1cccc(-c2c[nH]c3ncnc(N4CCOCC4)c23)c1
- % of inhibition [12]: -1%

SMILES: Cc1cc(F)c(C(=O)Nc2cccc(-c3nncn3C(C)C)n2)cc1-n1cnc(C2CC2)c1
- % of control [13]: 49%
- % of control [14]: 100%

SMILES: CNC(=O)Nc1ccc(-c2nc(N3CC4CCC(C3)O4)c3cnn(C4CCC5(CC4)OCCO5)c3n2)cc1
- % of inhibition [15]: 5%
- % of control [16]: 90%

SMILES: C=CC(=O)Nc1cccc(C(=O)Nc2ccc(Nc3cc(-c4[nH]c(SC)nc4C)ccn3)cc2)c1
- % of control ([17]; at 1 µM): 101%
- % of control ([17]; at 5 µM): 87%
- % of control ([18]; at 1 µM): 72%
- % of control ([18]; at 5 µM): 30%
- % of control ([19]; at 1 µM): 83%
- % of control ([19]; at 5 µM): 59%
